Source: patent publication US20250275978A1 (Cardiff Oncology, Inc., priority 2024, published 2025)
Several values for one entry are separate records, joined by “and”; a condition that tells them apart may be missing. Equal entries are not always repeated.

Tests used:
[1] = test system: RAS^WT CRC patient-derived xenograft (PDX) models; experiment: Example 1: antitumor activity in RAS^WT CRC PDX models, 18 days; assay type: in vivo, nude mice
Protocol: Twenty RAS^WT CRC PDXs were selected and engrafted in nude mice. […] Tumor volume change from baseline (TVC) was calculated as 100%×(Vt−Vo)/Vo and tumor growth inhibition (TGI) as 100%×(TVCcontrol−TVCtreated)/TVCcontrol. Tumor regression was defined as TVCD18<0 and tumor stasis […].

[2] = test system: RAS^WT colorectal cancer patient derived xenograft (PDX) models; experiment: Example 2: antitumor activity in RAS^WT CRC PDX models, 18-19 days; assay type: in vivo, mice
Protocol: Tumor volumes (TV) were measured twice a week, and % tumor volume change (TVC) from baseline was calculated as follows: (TVi/TV0−1)×100. Tumor stasis defined as TVC between 0 and 20%, and tumor regression as TVC less than 0% at last measurement. Results are presented as mean±SEM.

[3] = test system: panel of 63 kinases; conditions: low or no activity; cited from earlier work
[4] = test system: panel of 296 kinases, including other PLK members; conditions: cited from earlier work
[5] = test system: cell lines, both from solid as well as hematologic tumors; conditions: large number of cell lines; cited from earlier work
[6] = test system: AML cell lines; conditions: cited from earlier work
[7] = target: T1, CYP1A2 (Homo sapiens, UniProt P05177); conditions: human liver microsomes; cited from earlier work
T1 construct: was investigated using human liver microsomes; from tissue; host or cells: human liver microsomes
T1 sequence (P05177 1-516): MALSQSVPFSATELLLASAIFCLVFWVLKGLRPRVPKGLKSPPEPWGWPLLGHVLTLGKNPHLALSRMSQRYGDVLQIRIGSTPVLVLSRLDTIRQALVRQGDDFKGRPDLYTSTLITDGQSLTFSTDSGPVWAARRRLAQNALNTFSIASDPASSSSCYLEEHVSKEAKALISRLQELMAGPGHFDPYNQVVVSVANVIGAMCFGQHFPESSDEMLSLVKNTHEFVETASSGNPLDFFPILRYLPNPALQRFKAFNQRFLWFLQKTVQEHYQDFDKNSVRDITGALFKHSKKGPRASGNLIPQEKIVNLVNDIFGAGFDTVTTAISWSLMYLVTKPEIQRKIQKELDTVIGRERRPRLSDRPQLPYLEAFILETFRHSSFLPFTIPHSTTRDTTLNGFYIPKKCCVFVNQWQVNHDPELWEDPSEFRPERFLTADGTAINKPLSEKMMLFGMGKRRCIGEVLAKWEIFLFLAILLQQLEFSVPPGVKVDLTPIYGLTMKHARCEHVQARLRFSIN

[8] = rodent and nonrodent species; cited from earlier work
[9] = mice; cited from earlier work
[10] = test system: patients with advanced/metastatic solid tumors; conditions: cited from earlier work
[11] = 6 PDXs with acquired resistance to cetuximab
[12] = 7 PDXs with intrinsic resistance to cetuximab

## CN1CCN(c2ccc(OC(F)(F)F)c(Nc3ncc4c(n3)-c3c(c(C(N)=O)nn3CCO)CC4)c2)CC1 [onvansertib, 1-(2-hydroxyethyl)-8-{[5-(4-methylpiperazin-1-yl)-2-(trifluoromethoxy)phenyl]amino}-4,5-dihydro-1H-pyrazolo[4,3-h]quinazoline-3-carboxamide]
[1]; 20 PDXs, stasis 0≤TVCD18<100, 85%
  PDXs with potent anti-tumor activity (tumor regression or tumor stasis): 17 out of 20
[1]; CetuxR PDXs, IQR 74-124
  median TGI on Day 18: 108
[1]; CetuxS PDXs, IQR 76-103
  median TGI on Day 18: 102
[1]; all 20 PDXs, Day 18
  PDXs with tumor regression (TVCD18<0): 11 PDXs
  PDXs with tumor stasis (0≤TVCD18<100): 6 PDXs
[2]; [11]
  models with tumor growth inhibition: one
  models with tumor stasis or regression: 4/6
[2]; 7 PDXs sensitive to cetuximab
  models with tumor growth inhibition: two
[2]; 7 PDXs sensitive to cetuximab, stasis TVC 0-20%
  models with tumor stasis or regression: five and 5/7
[2]; [12]
  models with tumor growth inhibition: two
  models with tumor stasis or regression: 5/7
[2]; 13 PDX models resistant to cetuximab, 69%
  models with potent antitumor activity: 9/13
[2]; all 20 models
  models with tumor regression: 11 models
[2]; all 20 models, TVC between 0 and 20%
  models with tumor stasis: 3 models
[3]
  IC50: > 500 nM
[4]
  Specificity for PLK1 among a panel of 296 kinases: high specificity
[5]
  Activity in proliferation assays: low nanomolar activity
[6]
  Inhibition of cell proliferation: nanomolar concentrations
[7]
  Inhibitory effects against CYP1A2: No significant inhibitory effects
[8]
  oral bioavailability: good oral bioavailability
[9]
  concentrations relevant to achieve significant anti-tumoral activity: ~1 µM
[10]; 36 mg/m^2/day, 4 patients treated
  DLTs observed: 2 DLTs
[10]; 48 mg/m^2/day
  patients who developed DLTs: 2 of 3
[10]; 6, 12, and 24 mg/m^2/day
  DLTs at the first 3 dose levels: No DLTs
[10]; in vivo
  best observed treatment response: stable disease (SD)
[10]; oral, 5 consecutive days every 3 weeks
  maximum tolerated dose (MTD): 24 mg/m^2/day
[10]; reversible toxicities
  recovery from hematologic toxicities: ≤ 3 weeks
